ChEMBL document CHEMBL1142494, “Pharmacophore modeling and molecular docking led to the discovery of inhibitors of human immunodeficiency virus-1 replication targeting the human cellular aspartic acid-glutamic acid-alanine-aspartic acid box polypeptide 3” (J Med Chem, 2008)
Calls of active or inactive are those of the source. The rule behind the calls is not given here.

target: Proto-oncogene tyrosine-protein kinase Src (Homo sapiens) (UniProt P12931); test: Inhibition of c-Src upto 100 uM; settings: not given
Sequence (P12931 2-536 limits assumed): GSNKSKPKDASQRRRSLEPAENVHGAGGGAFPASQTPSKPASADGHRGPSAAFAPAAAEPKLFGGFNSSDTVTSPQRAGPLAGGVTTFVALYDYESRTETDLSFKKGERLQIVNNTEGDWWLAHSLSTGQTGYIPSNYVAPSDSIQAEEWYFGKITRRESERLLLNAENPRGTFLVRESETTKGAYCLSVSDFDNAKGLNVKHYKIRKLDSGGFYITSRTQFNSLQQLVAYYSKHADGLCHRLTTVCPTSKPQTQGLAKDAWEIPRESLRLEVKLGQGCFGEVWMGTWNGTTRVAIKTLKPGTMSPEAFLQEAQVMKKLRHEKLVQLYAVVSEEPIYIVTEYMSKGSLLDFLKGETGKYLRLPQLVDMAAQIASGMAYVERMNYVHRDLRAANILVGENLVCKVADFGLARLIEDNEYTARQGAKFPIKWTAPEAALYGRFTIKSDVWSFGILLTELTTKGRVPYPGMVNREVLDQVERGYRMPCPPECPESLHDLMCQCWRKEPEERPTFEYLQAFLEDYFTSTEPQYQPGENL

Activity, inactive:
O=C(CCN1C(=O)/C(=C/c2cccc(Br)c2)SC1=S)Nc1ccccc1O

target: Polynucleotide kinase (Enterobacteria phage T4) (UniProt P06855); test: Inhibition of T4 polynucleotide kinase upto 100 uM; settings: Tequatrovirus T4
Sequence (P06855 whole entry): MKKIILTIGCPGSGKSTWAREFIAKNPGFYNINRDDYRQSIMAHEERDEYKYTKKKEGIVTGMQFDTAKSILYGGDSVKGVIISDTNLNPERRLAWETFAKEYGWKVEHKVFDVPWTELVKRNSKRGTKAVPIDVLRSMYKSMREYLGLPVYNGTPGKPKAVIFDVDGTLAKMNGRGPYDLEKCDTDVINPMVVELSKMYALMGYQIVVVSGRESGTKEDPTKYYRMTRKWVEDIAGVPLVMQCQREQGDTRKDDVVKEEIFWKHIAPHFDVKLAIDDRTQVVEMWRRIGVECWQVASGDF

Activity, inactive:
O=C(CCN1C(=O)/C(=C/c2cccc(Br)c2)SC1=S)Nc1ccccc1O

target: ATP-dependent RNA helicase DDX3X (Homo sapiens) (UniProt O00571); test: Inhibition of ATPase activity in human recombinant DDX3 expressed in Escherichia coli by luciferase-based luminescence assay in presence of ATP; settings: not given
Sequence (O00571 2-662 limits assumed): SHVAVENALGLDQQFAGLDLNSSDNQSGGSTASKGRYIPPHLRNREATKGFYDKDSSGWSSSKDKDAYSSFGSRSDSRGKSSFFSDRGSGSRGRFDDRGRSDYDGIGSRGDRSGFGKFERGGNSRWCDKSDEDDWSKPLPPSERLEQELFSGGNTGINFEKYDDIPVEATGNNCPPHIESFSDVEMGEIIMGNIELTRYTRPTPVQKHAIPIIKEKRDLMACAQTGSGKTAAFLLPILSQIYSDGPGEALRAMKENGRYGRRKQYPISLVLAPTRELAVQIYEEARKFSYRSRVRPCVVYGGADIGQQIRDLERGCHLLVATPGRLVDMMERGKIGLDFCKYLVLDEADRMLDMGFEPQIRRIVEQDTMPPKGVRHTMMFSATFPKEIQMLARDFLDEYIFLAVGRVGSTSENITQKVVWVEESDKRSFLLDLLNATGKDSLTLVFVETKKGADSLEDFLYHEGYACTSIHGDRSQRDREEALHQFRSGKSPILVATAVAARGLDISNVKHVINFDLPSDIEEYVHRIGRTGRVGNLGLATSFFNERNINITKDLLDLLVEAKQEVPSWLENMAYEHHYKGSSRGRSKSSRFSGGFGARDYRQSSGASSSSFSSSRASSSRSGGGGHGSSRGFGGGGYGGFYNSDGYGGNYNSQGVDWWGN

Activity, inactive:
N#C/C(=C\c1ccc(-c2ccccc2[N+](=O)[O-])o1)c1nn(CCO)c(N)c1C#N
Cc1ccc(-c2ccc(/C=C(\C#N)c3n[nH]c(N)c3C#N)o2)c([N+](=O)[O-])c1
O=C(CCN1C(=O)/C(=C/c2ccccc2Cl)SC1=S)Nc1ccccc1O
Cc1ccc(/C=C2\SC(=S)N(CCC(=O)Nc3cccc(Cl)c3O)C2=O)cc1
O=C(CN1C(=O)/C(=C/c2cccc(Br)c2)SC1=S)Nc1cccc(O)c1
Cc1ccc(/C=C2\SC(=S)N(CCC(=O)Nc3ccccc3O)C2=O)cc1
N#C/C(=C\c1ccc(-c2ccccc2Cl)o1)c1nn(-c2ccccc2)c(N)c1C#N
COc1ccccc1NC(=O)CCN1C(=O)/C(=C/c2cccc(Br)c2)SC1=S
O=C(CCN1C(=O)/C(=C/c2ccccc2)SC1=S)Nc1ccccc1O
N#C/C(=C\c1ccc(-c2ccc(C(=O)O)cc2)o1)c1n[nH]c(N)c1C#N
O=C(CCN1C(=O)/C(=C/c2ccccc2)SC1=S)Nc1cccc(O)c1

test system: Hepacivirus hominis; test: Inhibition of HCV NS3 ATPase/helicase upto 100 uM; settings: not given

Activity, inactive:
O=C(CCN1C(=O)/C(=C/c2cccc(Br)c2)SC1=S)Nc1ccccc1O
